Data on three substances can be found in US11884709B2, “Peptides for the treatment of resorptive bone disease” (University of New Brunswick, priority 2015, dated 2024).

“Also recorded” adds a separate entry of the source. Where no end group is shown, it is not given here.

For one series, the system named is KMM-1 cells. The experiment in a line: 48 hr peptide treatment, myeloma cell growth (KMM-1). To be noted: 1 uM-500 uM. The class given is cell-based, human. The procedure: C1=1 uM, C2=10 uM, C3=50 uM, C4=100 uM, C5=150 uM, C6=250 uM, C7=300 uM, C8=400 uM, C9=500 uM.
(§1) The expression of TRPV6 protein was also observed in human myeloma cells by immunohistochemistry on myeloma bone sections (FIG. 1C) and in myeloma cell lines by western blotting (FIG. 9). Moreover, the growth inhibitory potential of SOR-C13 and SOR-C27 was determined using human myeloma cell lines U266 and KMM-1 (FIGS. 10 and 11). There exists a reciprocal relationship between myeloma cells and osteoclasts in the bone marrow milieu where myeloma cells secrete many factors that promote osteoclast activity, and in turn osteoclasts induce myeloma cell growth and survival.

A further series concerns U266 cells. The experiment in a line: 48 hr peptide treatment, myeloma cell growth (U266). As to conditions: 1 uM-500 uM. The format is cell-based, human. Here is the method:
C1=1 uM, C2=10 uM, C3=50 uM, C4=100 uM, C5=150 uM, C6=250 uM, C7=400 uM, C8=500 uM.
as §1

Series [1] has as its system Tartrate-Resistant Acid Phosphatase (TRAP) in osteoclasts. The experiment in a line: TRAP enzyme activity in conditioned media of osteoassay wells. The class given is cell-based, human. As to conditions: relative to controls. The procedure: Osteoclasts were fixed and stained for tartrate-resistant acid phosphatase (TRAP) using the leukocyte acid phosphatase kit (Sigma-Aldrich) according to the manufacturer's protocol. Images were acquired in EVOS brightfield microscope. To visualize actin ring formation in osteoclasts, tetramethyl rhodamine-phalloidin (Life Technologies Inc.) staining was done for 1 hour. The cell nuclei were counterstained with 1 μg/ml Hoechst 33342 (Sigma-Aldrich) in phosphate buffered saline for 5 minute. Images were acquired in EVOS fluorescence microscope. TRAP enzyme activity was measured at 37° C. with a substrate buffer (125 mg/ml Naphthol AS-BI phosphoric acid in diazotized fast garnet base chemical solution, Sigma-Aldrich) at 560 nm.
(§2) 10^5 BMCs per well in 24 well Corning osteoassay plate were treated with human M-CSF (10 ng/mL) and 10 ng/mL of human RANKL. […] Osteoassay plate was scanned using ChemiDoc MP and area of resorption pits in each well was quantified using ImageJ 1.48v Software.
The effect of C-terminal Soricidin peptides on osteoclast activity and bone resorption was examined using 24-well corning assay plates that have a 3D osteo surface that mimics in vivo bone for in vitro bone cell assays. […] Resorption of the osteosurface is evident from the resorption pits/trails made by the osteoclasts, and the extent of resorption was quantified. […]

Series [2] relates to osteoclast differentiation. The experiment in a line: Osteoclast differentiation from bone marrow mononuclear cells (M-CSF and RANKL). The class given is cell-based, human. To be noted: 150 μM (C5). Here is the method: (§3) Osteoclasts were generated in vitro by the modified method of Cody et al., 2011, using fresh human bone marrow aspirates. Briefly, bone marrow mononuclear cells (BMC) separated on a density gradient medium in SepMate tubes were resuspended in growth media (α-MEM with 10% FBS) and cultured for 3 days in T75 flask with 35 ng/mL M-CSF at 37° C. in a 5% CO2 incubator. For osteoclast differentiation experiments, 10^5 cells/well of BM monocytes-macrophage precursors seeded in a 24 well plate was treated with human M-CSF and RANKL, and media replenished with fresh cytokines every third day for two weeks.
as §2
The effect of C-terminal Soricidin peptides on osteoclast activity and bone resorption was examined using 24-well corning assay plates that have a 3D osteo surface that mimics in vivo bone for in vitro bone cell assays. […] Resorption of the osteosurface is evident from the resorption pits/trails made by the osteoclasts, and the extent of resorption was quantified. Furthermore, the percentage activity of TRAP, one of the enzymes involved in bone resorption, was determined in tandem with the resorption assay (FIG. 7c). […]

For the next series, the system named is human osteoclasts. The experiment in a line: Osteoassay: bone resorption by osteoclasts on Corning osteoassay plate. The format is cell-based. As to conditions: for resorptive activity on corning osteoassay surface: 150 μM (C5); for bone resorption by osteoclasts / osteoclast activity (percentage resorption): Corning osteoassay plate, 1 uM-150 uM, M-CSF and RANKL, day 12. Here is the method:
as §3
10^5 BMCs per well in 24 well Corning osteoassay plate were treated with human M-CSF (10 ng/mL) and 10 ng/mL of human RANKL. Undifferentiated condition includes cells treated with M-CSF only. The treatment wells had both M-CSF and RANKL followed by addition of TRPV6 peptide antagonists SOR-C13 and SOR-C27 at concentrations range 1 μM-150 μM tested in triplicate wells, vehicle or PBS buffer in which the peptides are dissolved and the standard anti-resorbing agent, Zoledronate were included for the experiment. Replenishment with fresh media containing M-CSF, RANKL and SOR peptides in respective wells was carried out every third day. On day 12, cells in osteoplates were removed by incubating with 10% bleach for 10 minutes; wells were washed with distilled water three times and air-dried for 3-5 hrs. Osteoassay plate was scanned using ChemiDoc MP and area of resorption pits in each well was quantified using ImageJ 1.48v Software.
Experiments were done in triplicates for each condition and data presented as mean±SD. All statistical analyses were done using GraphPad Prism 6, one way ANOVA and Dunnett's multiple comparison test was used to determine significance between groups and P<0.05 is considered statistically significant.
The effect of C-terminal Soricidin peptides on osteoclast activity and bone resorption was examined using 24-well corning assay plates that have a 3D osteo surface that mimics in vivo bone for in vitro bone cell assays. The inorganic bone biomaterial surface in each well is capable of supporting the functional properties of osteogenic cells. Only osteoclasts, specialized cells expressing bone-resorbing enzymes such as TRAP, cathepsin K and collagenase, can resorb such an artificial osteosurface. Resorption of the osteosurface is evident from the resorption pits/trails made by the osteoclasts, and the extent of resorption was quantified. Furthermore, the percentage activity of TRAP, one of the enzymes involved in bone resorption, was determined in tandem with the resorption assay (FIG. 7c). The anti-resorptive potential of selective TRPV6 antagonist peptides, SOR-C13 and SOR-C27 at various concentrations was observed (FIGS. 7 and 8) was observed.

For series [3], the system named is two ovarian cancer cell lines. To be noted: cited from earlier work.
The conditions of series [4]: in vivo; cited from earlier work.

As to “EGKLSSNDTEGGLCKEFLHPSKVDLPR [SOR-C27, peptide corresponding to the C-terminal end of soricidin; TRPV6 peptide antagonist]”, the cell growth result in the series with KMM-1 cells is on record as “dose-dependent inhibition of cell growth”. In addition, the cell growth entry in the series on U266 cells is on record as “dose-dependent inhibition of cell growth”. In addition, in series [1], the TRAP enzyme activity result is recorded as “decrease in TRAP enzyme activity relative to controls”. Moreover, in series [2], the “osteoclast differentiation in vitro” value is listed as “inhibited osteoclast differentiation”. Also, in the series with human osteoclasts, the “resorptive activity on corning osteoassay surface” value was “significantly reduced their resorptive activity” and the “bone resorption by osteoclasts / osteoclast activity (percentage resorption)” value is “dose-dependent Inhibition of osteoclast activity; also recorded: dose-dependent decrease in bone resorption”.

For KEFLHPSKVDLPR [SOR-C13, KEFLHPSKVDLPR], the cell growth result in the series with KMM-1 cells and with U266 cells was “dose-dependent inhibition of cell growth” throughout. Further, the TRAP enzyme activity entry in series [1] was “decrease in TRAP enzyme activity relative to controls”. Further, in series [2], the “osteoclast differentiation in vitro” value is given as “inhibited osteoclast differentiation”. Moreover, in the series with human osteoclasts, the “resorptive activity on corning osteoassay surface” value is “significantly reduced their resorptive activity”. In addition, the “bone resorption by osteoclasts / osteoclast activity (percentage resorption)” value in the series with human osteoclasts is reported as “inhibition of osteoclast activity; also recorded: dose-dependent decrease in bone resorption”.

For “Soricidin: fifty-four amino acid paralytic peptide isolated from the submaxilary saliva gland of the Northern Short-tailed Shrew (Blarina brevicauda) (DCSQDCAACSILARPAELNTETCILECEGKLSSNDTEGGLCKEFLHPSKVDLPR; UniProt P0C2P6 1-54, looked up)”, the calcium uptake result in series [3] is “inhibited calcium uptake”. In series [4], the paralysis entry is “caused paralysis”.
